{
  "source": "patent US6291527A",
  "about": "(priority 1998, dated 2001)",
  "key": {"[1]": {"conditions": "high quantities, intact and abraded skin, also long term; cited from earlier work"}, "[2]": {"conditions": "100 mg i.m., cited from earlier work"}, "[3]": {"conditions": "in vivo; cited from earlier work"}, "[4]": {"test_system": "inflammatory exudate (IE)", "assay": "foreign body (sponge) method in the rat: inflammatory exudate volume", "format": "in vivo", "conditions": "rat, oral, 10 mg/kg, 8 hours", "description": "(§1) These tests involved the use of 100 male CD strain rats (Charles River, Calco, LC, Italy) weighing 180±8 g. The animals were fasted for 12 hours (water ad libitum) before being used for the experiment.\n(§2) The inflammatory reaction with the formation of exudate was induced by using sterilized polyester sponges (4×1.5×0.5 cm) soaked in carrageen dissolved at a 2% concentration in sterile physiological solution. The rats were anesthetized lightly with ether and two sponges per rat were implanted subcutaneously in a previously shaven dorsal area.\n(§3) The sponges were removed 8 hours later after having sacrificed the animals by ether euthanasia, and immediately placed in large polyethylene 50 ml test tubes containing 10 ml of heparinized physiological solution. The test tubes were then subjected to centrifugation (1000 rotations; 15 minutes), followed by removal of the sponges and accurate measurement of the volume of the remaining fluid. Always using the Higgs et al. method, the acid lipids present in the fluid were extracted in chloroform with prior dilution in ethanol and acidification to pH 3. After complete evaporation of the chloroform, the remaining dry residue was dissolved in physiological solution and used for the immunoenzymatic assay of prostaglandin E2 (PGE2).\n(§4) All the other reagents used for the tests were purchased from Merck-Bracco (Milan, Italy)."}, "[5]": {"test_system": "prostaglandin E2 (PGE2)", "assay": "foreign body (sponge) method in the rat: PGE2 in the inflammatory exudate (immunoenzymatic assay)", "format": "in vivo", "conditions": "rat, oral, 10 mg/kg, 8 hours", "description": "as §1, §2, §3, §4"}, "[6]": {"conditions": "100 mg i.m., approx. 3 hours before operation; cited from earlier work"}, "[7]": {"conditions": "synovial fluid, 50 mg oral; cited from earlier work"}, "[8]": {"conditions": "cited from earlier work"}, "[9]": {"conditions": "Ketoprofen gel, cited from earlier work"}, "[10]": {"test_system": "rat", "conditions": "cited from earlier work"}, "[11]": {"test_system": "carrageen edema", "assay": "carrageen edema test in the rat (hind paw volume, plethysmometer)", "conditions": "rat, oral"}, "[12]": {"conditions": "once a day for three days, 12 hours"}},
  "note": "“Also recorded” adds a separate entry of the source. Where two headings read alike, the source gives them in different places.",
  "data": [
    {"smiles": "CC(C(=O)O)c1cccc(C(=O)c2ccccc2)c1", "note": "(stereo not drawn) [Ketoprofen, 3-Benzoyl-α-methylbenzeneacetic acid]", "values": [
      {"measurement": "tolerability / toxicity following dermal application", "setting": "[1]", "value": "excellent tolerability and lack of acute and chronic toxicity; also recorded: did not induce any local or general harm"},
      {"measurement": "penetration into the joints", "setting": "[2]; 15 minutes", "value": "penetrates promptly into the joints"},
      {"measurement": "serum and synovial concentration at equilibrium", "setting": "[2]; 3.5 hours", "value": 1.3, "unit": "µg/mL"},
      {"measurement": "mean resident time in the joints vs serum", "setting": "[2]", "value": "about three times longer than that observed in serum"},
      {"measurement": "time of equilibrium of serum and synovial concentrations", "setting": "[2]", "value": 3.5, "unit": "h"},
      {"measurement": "AUC of the free Ketoprofen fraction in serum", "setting": "[2]; serum", "value": 127, "unit": "ng·h/mL"},
      {"measurement": "time of maximum serum concentration", "setting": "[2]; serum", "value": 30, "unit": "min"},
      {"measurement": "AUC of the free Ketoprofen fraction in synovial fluid", "setting": "[2]; synovial fluid", "value": 119, "unit": "ng·h/mL"},
      {"measurement": "elimination with the feces", "setting": "[3]", "value": 1, "unit": "%"},
      {"measurement": "% inhibition versus controls of IE", "setting": "[4]", "value": 58.6, "unit": "%"},
      {"measurement": "IE (inflammatory exudate) volume", "setting": "[4]; mean ± MSE, controls 5.15 ± 0.28", "value": "2.13 ± 0.15", "unit": "mL"},
      {"measurement": "% inhibition versus controls of PGE2", "setting": "[5]", "value": 49.7, "unit": "%"},
      {"measurement": "PGE2 concentration in the inflammatory exudate", "setting": "[5]; mean, controls 98.7 ± 4.7", "value": 49.6, "unit": "ng/mL"},
      {"measurement": "mean value in blood", "setting": "[6]", "value": 1.39, "unit": "µg/g"},
      {"measurement": "mean value in bone", "setting": "[6]", "value": 0.25, "unit": "µg/g"},
      {"measurement": "mean value in fat", "setting": "[6]", "value": 0.28, "unit": "µg/g"},
      {"measurement": "mean value in muscle", "setting": "[6]", "value": 0.26, "unit": "µg/g"},
      {"measurement": "mean value in synovial fluid", "setting": "[6]", "value": 0.85, "unit": "µg/g"},
      {"measurement": "mean value in synovial membrane", "setting": "[6]", "value": 0.32, "unit": "µg/g"},
      {"measurement": "time of synovial peak", "setting": "[7]", "value": "approximately two hours after the plasma peak"},
      {"measurement": "time to peak concentration", "setting": "[8]; intramuscular", "value": "≤ 30", "unit": "min"},
      {"measurement": "intraarticular concentrations vs serum and plasma, conclusion", "setting": "[8]; various routes of administration", "value": "reach peak levels later with respect to those observable in serum and plasma, but remain at higher levels than the latter for a longer period after treatment and always with higher values compared to those present in circulatory flow"},
      {"measurement": "concentration when first detectable", "setting": "[9]; 2nd hour, matrix not stated", "value": 6.3, "unit": "ng/mL"},
      {"measurement": "concentration in capsular tissue", "setting": "[9]; [12]", "value": 2.36, "unit": "µg/g"},
      {"measurement": "concentration in intraarticular adipose tissue", "setting": "[9]; [12]", "value": 4.70, "unit": "µg/g"},
      {"measurement": "concentration in synovial fluid", "setting": "[9]; [12]", "value": 1.31, "unit": "µg/g"},
      {"measurement": "concentration in the joint vs systemic circulation", "setting": "[9]", "value": "greater active substance concentration in the joint than in systemic circulation"},
      {"measurement": "duration of constant values", "setting": "[9]", "value": 12, "unit": "h"},
      {"measurement": "time to peak concentration", "setting": "[9]", "value": "after six hours"},
      {"measurement": "oral LD50", "setting": "[10]", "value": 165, "unit": "mg/kg"},
      {"measurement": "anti-inflammatory / anti-edematogenic effect", "setting": "[11]", "value": "also resulted as having anti-inflammatory activity"},
      {"measurement": "evolution of paw volume (delta in ml) at 1st hour", "setting": "[11]; 10 mg/kg, 1st hour, mean ± MSE", "value": "0.19 ± 0.02", "unit": "mL"},
      {"measurement": "evolution of paw volume (delta in ml) at 2nd hour", "setting": "[11]; 10 mg/kg, 2nd hour, mean ± MSE", "value": "0.33 ± 0.03", "unit": "mL"},
      {"measurement": "evolution of paw volume (delta in ml) at 3rd hour", "setting": "[11]; 10 mg/kg, 3rd hour, mean ± MSE", "value": "0.41 ± 0.02", "unit": "mL"},
      {"measurement": "evolution of paw volume (delta in ml) at 4th hour", "setting": "[11]; 10 mg/kg, 4th hour, mean ± MSE", "value": "0.42 ± 0.02", "unit": "mL"},
      {"measurement": "evolution of paw volume (delta in ml) at 5th hour", "setting": "[11]; 10 mg/kg, 5th hour, mean ± MSE", "value": "0.40 ± 0.03", "unit": "mL"},
      {"measurement": "evolution of paw volume (delta in ml) at 6th hour", "setting": "[11]; 10 mg/kg, 6th hour, mean ± MSE", "value": "0.37 ± 0.03", "unit": "mL"},
      {"measurement": "% inhibition vs controls (paw edema AUC)", "setting": "[11]; 10 mg/kg, p < 0.001", "value": 54.1, "unit": "%"},
      {"measurement": "AUC (mean ± MSE) of increase in paw volume", "setting": "[11]; 10 mg/kg, paw volume (delta in ml) vs time (0 to 6 hours), controls 4.23 ± 0.26", "value": "1.94 ± 0.10"}
    ]}
  ]
}
